Experimental data published in patent publication US9770026B2, “Substituted pyrimidine compound and uses thereof” (Shenyang Sinochem Agrochemicals R&D Co., Ltd., priority 2012, dated 2017).

How the values were obtained:
Diamond back moth = experiment: insecticidal activity against diamond back moth, airbrush spray; assay type: in vivo
Procedure: Compounds were dissolved in mixed solvent (acetone:methanol=1:1), and diluted to required concentration with water containing 0.1% of tween 80.
Diamond back moth, armyworm, peach aphid and carmine spider mite were used as targets and the method of spraying by airbrush was used for determination of insecticidal biassays.
The method of spraying by airbrush: The cabbage leaves were made into plates of 2 cm diameter by use of punch. A test solution (0.5 ml) was sprayed by airbrush at the pressure of 0.7 kg/cm^2 to both sides of every plate. 10 Second instar larvae were put into the petri-dishes after the leaf disc air-dried and 3 replicates were set for each treatment. Then the insects were maintained in observation room (25° C., 60˜70% R.H.). Scores were conducted and mortalities were calculated after 72 hrs.

armyworm = experiment: bioactivity test against armyworm, airbrush spray; assay type: in vivo
[1] = test system: Green peach aphids (Myzus Persicae Sulzer); experiment: bioactivity test against green peach aphid, airbrush foliar spray; assay type: in vivo
How it was run: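 Death rate was scored at 48 hrs, held at 25±1 C and 60±5% RH, following airbrush foliar spray (0.5 mL, 10 psi) onto cabbage leaf discs bearing about 15-30 aphids. Test solutions: compound dissolved in 1:1 acetone:methanol, brought to concentration with 0.1% tween 80 water.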

carmine spider mite = experiment: bioactivity test against carmine spider mite, airbrush spray; assay type: in vivo
How it was run: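 Broadbean seedlings infested with adult mites were sprayed with compound (acetone/methanol stock diluted in 0.1% Tween 80 water) by airbrush at 0.7 kg/cm^2, 0.5 ml. Three replicates were run. Mortality was scored after 72 hrs.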

corn rust = experiment: protectant activity in vivo against corn rust; settings: Zea mays, 168 h; for pest or weed control at 0.4 µg/mL: read-out: control effect against corn rust (%), 0.4 mg/L; for pest or weed control at 0.4 µg/mL / pest or weed control at 1.6 µg/mL / pest or weed control at 6.25 µg/mL / pest or weed control at 25 µg/mL / pest or weed control at 100 µg/mL / pest or weed control at 400 µg/mL: protectant activity; for pest or weed control at 1.6 µg/mL: read-out: control effect against corn rust (%), 1.6 mg/L; for pest or weed control at 6.25 µg/mL: read-out: control effect against corn rust (%), 6.25 mg/L; for pest or weed control at 25 µg/mL: read-out: control effect against corn rust (%), 25 mg/L; for pest or weed control at 100 µg/mL: read-out: control effect against corn rust (%), 100 mg/L; for pest or weed control at 400 µg/mL: read-out: control effect against corn rust (%), 400 mg/L
cucumber downy mildew = experiment: protectant activity in vivo against cucumber downy mildew; settings: for pest or weed control at 25 µg/mL: read-out: control effect against cucumber downy mildew (%), 25 mg/L; for pest or weed control at 50 µg/mL: read-out: control effect against cucumber downy mildew (%), 50 mg/L; for pest or weed control at 100 µg/mL: read-out: control effect against cucumber downy mildew (%), 100 mg/L; for pest or weed control at 400 µg/mL: read-out: control effect against cucumber downy mildew (%), 400 mg/L
wheat powdery mildew = experiment: protectant activity in vivo against wheat powdery mildew
[2] = 72 h, 600 mg/L, read-out: Insecticidal activity against armyworm (%)
[3] = Myzus persicae, foliar, 48 h, 10 mg/L, contrastive test, read-out: Insecticidal activity against peach aphid (%)
[4] = Myzus persicae, foliar, 48 h, 100 mg/L, contrastive test, read-out: Insecticidal activity against peach aphid (%)
[5] = Myzus persicae, foliar, 48 h, 600 mg/L, contrastive test, read-out: Insecticidal activity against peach aphid (%)
[6] = Cucumis sativus, 168 h, protectant activity
[7] = 100 ppm, mortality after 72 hrs
[8] = 600 ppm, mortality after 72 hrs
[9] = 10 ppm, death rate after 48 hrs
[10] = 100 ppm, death rate after 48 hrs
[11] = 600 ppm, death rate after 48 hrs

Cc1ncnc(NC(C)c2ccc(Oc3ccc(C(F)(F)F)cn3)cc2)c1Cl (stereo not drawn) [CK28, reference compound]
43%: pest or weed control at 10 µg/mL [1, 3]
22%: pest or weed control at 10 µg/mL (carmine spider mite; Tetranychus cinnabarinus, 72 h, 10 mg/L, contrastive test, read-out: Insecticidal activity against carmine spider mite (% ))
95%: pest or weed control at 6.25 µg/mL (corn rust)
20%: pest or weed control at 50 µg/mL (cucumber downy mildew; [6])
0%: pest or weed control at 600 µg/mL (Diamond back moth; 72 h, 600 mg/L) | pest or weed control at 0.4 µg/mL (corn rust) | pest or weed control at 1.6 µg/mL (corn rust) | pest or weed control at 25 µg/mL (cucumber downy mildew; [6])
29%: pest or weed control at 600 µg/mL (armyworm; [2])
40%: pest or weed control at 100 µg/mL (cucumber downy mildew; [6])
100%: pest or weed control at 100 µg/mL [1, 4] | pest or weed control at 600 µg/mL [1, 5] | pest or weed control at 100 µg/mL (carmine spider mite; Tetranychus cinnabarinus, 72 h, 100 mg/L, contrastive test, read-out: Insecticidal activity against carmine spider mite (% )) | pest or weed control at 600 µg/mL (carmine spider mite; Tetranychus cinnabarinus, 72 h, 600 mg/L, contrastive test, read-out: Insecticidal activity against carmine spider mite (% )) | pest or weed control at 25 µg/mL (corn rust) | pest or weed control at 100 µg/mL (corn rust) | pest or weed control at 400 µg/mL (corn rust) | pest or weed control at 400 µg/mL (cucumber downy mildew; [6])

CCc1ncnc(NCCc2ccc(Oc3ccc(C#N)cn3)cc2)c1Cl [Compound I-255]
85%: Insecticidal activity against carmine spider mite (% ) (carmine spider mite; 10 mg/L, contrastive test)
43%: Insecticidal activity against diamond back moth (%) (Diamond back moth; 10 mg/L)
25%: Insecticidal activity against armyworm (%) (armyworm; 10 mg/L)
84%: Insecticidal activity against carmine spider mite (% ) (carmine spider mite; 5 mg/L)
100%: Insecticidal activity against diamond back moth (%) (Diamond back moth; 100 mg/L) | Insecticidal activity against diamond back moth (%) (Diamond back moth; 600 mg/L) | control (test results against diamond back moth) (Diamond back moth; [7]) | control (test results against diamond back moth) (Diamond back moth; [8]) | Insecticidal activity against armyworm (%) (armyworm; 100 mg/L) | Insecticidal activity against armyworm (%) (armyworm; 600 mg/L) | control (test results against armyworm) (armyworm; 100 ppm, mortality after 72 h) | control (test results against armyworm) (armyworm; 600 ppm, mortality after 72 h) | control (test results against green peach aphid) [1, 9] | control (test results against green peach aphid) [1, 10] | control (test results against green peach aphid) [1, 11] | Insecticidal activity against carmine spider mite (% ) (carmine spider mite; 100 mg/L, contrastive test) | Insecticidal activity against carmine spider mite (% ) (carmine spider mite; 600 mg/L, contrastive test) | control against carmine spider mite (carmine spider mite; [7]) | control against carmine spider mite (carmine spider mite; [8]) | protectant activity against wheat powdery mildew in vivo (wheat powdery mildew; 25 ppm) | protectant activity against wheat powdery mildew in vivo (wheat powdery mildew; 100 ppm) | protectant activity against wheat powdery mildew in vivo (wheat powdery mildew; 400 ppm) | protectant activity against cucumber downy mildew in vivo (cucumber downy mildew; 25 ppm) | protectant activity against cucumber downy mildew in vivo (cucumber downy mildew; 50 ppm) | protectant activity against cucumber downy mildew in vivo (cucumber downy mildew; 100 ppm) | protectant activity against cucumber downy mildew in vivo (cucumber downy mildew; 400 ppm)
72%: Insecticidal activity against carmine spider mite (% ) (carmine spider mite; 2.5 mg/L)

FC(F)c1ncnc(NCCc2ccc(Oc3ccc(Cl)cc3)cc2)c1Cl [II-8915]
80 to 99%: pest or weed control at 100 ppm (armyworm; 72 h, 100 ppm, mortality after 72 h) | pest or weed control at 6.25 ppm (cucumber downy mildew; Cucumis sativus, 168 h, read-out: protectant activity against cucumber downy mildew in vivo, 6.25 ppm) | pest or weed control at 12.5 ppm (cucumber downy mildew; Cucumis sativus, 168 h, read-out: protectant activity against cucumber downy mildew in vivo, 12.5 ppm) | pest or weed control at 25 ppm (cucumber downy mildew; Cucumis sativus, 168 h, read-out: protectant activity against cucumber downy mildew in vivo, 25 ppm) | pest or weed control at 50 ppm (cucumber downy mildew; Cucumis sativus, 168 h, read-out: protectant activity against cucumber downy mildew in vivo, 50 ppm)
99%: pest or weed control at 25 µg/mL (cucumber downy mildew; [6])
30%: pest or weed control at 0.4 µg/mL (corn rust)
80%: pest or weed control at 1.6 µg/mL (corn rust)
20%: pest or weed control at 3.125 µg/mL (cucumber downy mildew; Cucumis sativus, 168 h, read-out: control effect against cucumber downy mildew (%), 3.125 mg/L, protectant activity)
90%: pest or weed control at 6.25 µg/mL (cucumber downy mildew; Cucumis sativus, 168 h, read-out: control effect against cucumber downy mildew (%), 6.25 mg/L, protectant activity)
100%: pest or weed control at 600 ppm (Diamond back moth; 72 h, 600 ppm, mortality after 72 hrs, read-out: control (test results against diamond back moth)) | pest or weed control at 600 µg/mL (armyworm; [2]) | pest or weed control at 600 ppm (armyworm; 72 h, 600 ppm, mortality after 72 h) | pest or weed control at 1.25 µg/mL ([1]; Myzus persicae, foliar, 48 h, 1.25 mg/L, contrastive test, read-out: Insecticidal activity against peach aphid (%)) | pest or weed control at 2.5 µg/mL ([1]; Myzus persicae, foliar, 48 h, 2.5 mg/L, contrastive test, read-out: Insecticidal activity against peach aphid (%)) | pest or weed control at 5 µg/mL ([1]; Myzus persicae, foliar, 48 h, 5 mg/L, contrastive test, read-out: Insecticidal activity against peach aphid (%)) | pest or weed control at 10 µg/mL [1, 3] | pest or weed control at 100 µg/mL [1, 4] | pest or weed control at 600 µg/mL [1, 5] | pest or weed control at 2.5 ppm ([1]; Myzus persicae, foliar, 48 h, 2.5 ppm, death rate after 48 hrs) | pest or weed control at 5 ppm ([1]; Myzus persicae, foliar, 48 h, 5 ppm, death rate after 48 hrs) | pest or weed control at 10 ppm ([1]; Myzus persicae, foliar, 48 h, 10 ppm, death rate after 48 hrs) | pest or weed control at 100 ppm ([1]; Myzus persicae, foliar, 48 h, 100 ppm, death rate after 48 hrs) | pest or weed control at 600 ppm ([1]; Myzus persicae, foliar, 48 h, 600 ppm, death rate after 48 hrs) | pest or weed control at 100 ppm (carmine spider mite; Tetranychus cinnabarinus, 72 h, 100 ppm, mortality after 72 hrs) | pest or weed control at 600 ppm (carmine spider mite; Tetranychus cinnabarinus, 72 h, 600 ppm, mortality after 72 hrs) | pest or weed control at 6.25 µg/mL (corn rust) | pest or weed control at 25 µg/mL (corn rust) | pest or weed control at 100 µg/mL (corn rust) | pest or weed control at 400 µg/mL (corn rust) | pest or weed control at 6.25 ppm (corn rust; read-out: protectant activity against corn rust in vivo, 6.25 ppm) | pest or weed control at 25 ppm (corn rust; read-out: protectant activity against corn rust in vivo, 25 ppm) | pest or weed control at 100 ppm (corn rust; read-out: protectant activity against corn rust in vivo, 100 ppm) | pest or weed control at 400 ppm (corn rust; read-out: protectant activity against corn rust in vivo, 400 ppm) | pest or weed control at 50 µg/mL (cucumber downy mildew; [6]) | pest or weed control at 100 µg/mL (cucumber downy mildew; [6]) | pest or weed control at 400 µg/mL (cucumber downy mildew; [6]) | pest or weed control at 100 ppm (cucumber downy mildew; Cucumis sativus, 168 h, read-out: protectant activity against cucumber downy mildew in vivo, 100 ppm) | pest or weed control at 400 ppm (cucumber downy mildew; Cucumis sativus, 168 h, read-out: protectant activity against cucumber downy mildew in vivo, 400 ppm)
44%: pest or weed control at 10 µg/mL (armyworm; 72 h, 10 mg/L, read-out: Insecticidal activity against armyworm (%))
95%: pest or weed control at 100 µg/mL (armyworm; 72 h, 100 mg/L, read-out: Insecticidal activity against armyworm (%)) | pest or weed control at 12.5 µg/mL (cucumber downy mildew; Cucumis sativus, 168 h, read-out: control effect against cucumber downy mildew (%), 12.5 mg/L, protectant activity)

Cc1ncnc(NCCc2ccc(Oc3ccc(C(F)(F)F)cc3)nc2)c1Cl [III-22]
71%: Insecticidal activity against armyworm (%) (armyworm; 10 mg/L)
72%: Insecticidal activity against carmine spider mite (% ) (carmine spider mite; 10 mg/L, contrastive test)
98%: Insecticidal activity against peach aphid (%) ([1]; 2.5 mg/L, contrastive test)
67%: Insecticidal activity against peach aphid (%) ([1]; 1.25 mg/L, contrastive test)
100%: control (test results against diamond back moth) (Diamond back moth; [8]) | Insecticidal activity against armyworm (%) (armyworm; 100 mg/L) | Insecticidal activity against armyworm (%) (armyworm; 600 mg/L) | control (test results against armyworm) (armyworm; 100 ppm, mortality after 72 h) | control (test results against armyworm) (armyworm; 600 ppm, mortality after 72 h) | Insecticidal activity against peach aphid (%) ([1]; 5 mg/L, contrastive test) | Insecticidal activity against peach aphid (%) ([1]; 10 mg/L, contrastive test) | Insecticidal activity against peach aphid (%) ([1]; 100 mg/L, contrastive test) | Insecticidal activity against peach aphid (%) ([1]; 600 mg/L, contrastive test) | control (test results against green peach aphid) [1, 9] | control (test results against green peach aphid) [1, 10] | control (test results against green peach aphid) [1, 11] | Insecticidal activity against carmine spider mite (% ) (carmine spider mite; 100 mg/L, contrastive test) | Insecticidal activity against carmine spider mite (% ) (carmine spider mite; 600 mg/L, contrastive test) | control against carmine spider mite (carmine spider mite; [7]) | control against carmine spider mite (carmine spider mite; [8]) | protectant activity against wheat powdery mildew in vivo (wheat powdery mildew; 400 ppm) | control effect against cucumber downy mildew (%) (cucumber downy mildew; 6.25 mg/L, protectant activity) | control effect against cucumber downy mildew (%) (cucumber downy mildew; 12.5 mg/L, protectant activity) | control effect against cucumber downy mildew (%) (cucumber downy mildew; 25 mg/L, protectant activity) | control effect against cucumber downy mildew (%) (cucumber downy mildew; 50 mg/L, protectant activity) | control effect against cucumber downy mildew (%) (cucumber downy mildew; 100 mg/L, protectant activity) | control effect against cucumber downy mildew (%) (cucumber downy mildew; 400 mg/L, protectant activity) | protectant activity against cucumber downy mildew in vivo (cucumber downy mildew; 6.25 ppm) | protectant activity against cucumber downy mildew in vivo (cucumber downy mildew; 12.5 ppm) | protectant activity against cucumber downy mildew in vivo (cucumber downy mildew; 25 ppm) | protectant activity against cucumber downy mildew in vivo (cucumber downy mildew; 50 ppm) | protectant activity against cucumber downy mildew in vivo (cucumber downy mildew; 100 ppm) | protectant activity against cucumber downy mildew in vivo (cucumber downy mildew; 400 ppm)
